Assay results published in patent US20100267561A1, “HERBICIDAL PYRIDAZINONE DERIVATIVES” (priority 2007, published 2010).

Legend:
Experiment in all cases: Test B pre-/postemergence plant response
Type in all cases: in vivo
[1] = tested on: surinam grass (Brachiaria decumbens); conditions: for Surinam Grass plant response rating: 8 g ai/ha
Procedure, shortened: (§1)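 Visual scoring from 0 (no effect) to 100 (complete control) against untreated controls was done 13 to 15 days after greenhouse treatment. Chemicals were formulated in a surfactant-containing non-phytotoxic solvent and applied to soil preemergence or to 1- to 4-leaf (2-18 cm) plants postemergence.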

[2] = tested on: wild oat (Avena fatua); conditions: for Oat, Wild plant response rating: 8 g ai/ha
Procedure, shortened: as §1

[3] = tested on: Russian thistle (Salsola iberica); conditions: Preemergence
Procedure, shortened: as §1

[4] = tested on: corn (Zea mays); conditions: for Corn plant response rating: 8 g ai/ha
Procedure, shortened: as §1

[5] = tested on: eastern black (E.B.) nightshade (Solanum ptycanthum); conditions: Preemergence
Procedure, shortened: as §1

[6] = tested on: kochia (Kochia scoparia); conditions: for Kochia plant response rating: 8 g ai/ha
Procedure, shortened: as §1

[7] = tested on: common ragweed (Ambrosia elation); conditions: for Ragweed plant response rating: 8 g ai/ha
Procedure, shortened: as §1

[8] = tested on: cocklebur (Xanthium strumarium); conditions: for Cocklebur plant response rating: 8 g ai/ha
Procedure, shortened: as §1

[9] = tested on: green foxtail (Setaria viridis); conditions: for Foxtail, Green plant response rating: 8 g ai/ha
Procedure, shortened: as §1

[10] = tested on: lambsquarters (Chenopodium album); conditions: for Lambsquarters plant response rating: 8 g ai/ha
Procedure, shortened: as §1

[11] = tested on: Italian ryegrass (Lolium multiflorum); conditions: for Ryegrass, Italian plant response rating: 8 g ai/ha
Procedure, shortened: as §1

[12] = tested on: morningglory (Ipomoea coccinea); conditions: for Morningglory plant response rating: 8 g ai/ha
Procedure, shortened: as §1

[13] = tested on: catchweed bedstraw (Galium aparine); conditions: Preemergence
Procedure, shortened: as §1

[14] = tested on: yellow nutsedge (Cyperus esculentus); conditions: for Nutsedge, Yellow plant response rating: 8 g ai/ha
Procedure, shortened: as §1

[15] = Postemergence, 16 g ai/ha, scale 0 to 100
[16] = Postemergence, 62 g ai/ha, scale 0 to 100, 0 no effect, 100 complete control
[17] = Preemergence, 16 g ai/ha, scale 0 to 100 (0 no effect, 100 complete control)
[18] = Preemergence, 31 g ai/ha, 0 to 100 scale, 0 no effect, 100 complete control
[19] = Preemergence, 62 g ai/ha, scale 0 to 100
[20] = Postemergence, 31 g ai/ha, scale 0 to 100, 0 no effect, 100 complete control
[21] = 16 g ai/ha, scale 0 to 100 (0 no effect, 100 complete control)
[22] = 31 g ai/ha, 0 to 100 scale, 0 no effect, 100 complete control

Compound: COC(=O)Oc1cnn(C)c(=O)c1-n1nc(-c2ccc(Cl)cc2)cc1C [Compound 33]
- Surinam Grass plant response rating ([1]; postemergence, 0-100 scale): 85
- Plant response rating, Surinam Grass [1, 15]: 100
- Plant response rating, Surinam Grass [1, 16]: 100
- Plant response rating, Surinam Grass [1, 17]: 90
- Plant response rating, Surinam Grass [1, 18]: 98
- Plant response rating, Surinam Grass [1, 19]: 100
- Surinam Grass plant response rating ([1]; Preemergence, scale 0 to 100): 75
- Oat, Wild plant response rating ([2]; postemergence, 0-100 scale): 90
- Plant response rating, Oat, Wild [2, 15]: 95
- Plant response rating, Oat, Wild [2, 20]: 95
- Plant response rating, Oat, Wild [2, 16]: 98
- Plant response rating, Oat, Wild [2, 17]: 80
- Plant response rating, Oat, Wild [2, 18]: 80
- Plant response rating, Oat, Wild [2, 19]: 90
- Oat, Wild plant response rating ([2]; Preemergence, scale 0 to 100): 70
- Plant response rating, Russian Thistle [3, 21]: 0
- Plant response rating, Russian Thistle [3, 22]: 0
- Plant response rating, Russian Thistle ([3]; 62 g ai/ha, scale 0 to 100): 80
- Russian Thistle plant response rating ([3]; 8 g ai/ha, scale 0 to 100): 0
- Corn plant response rating ([4]; postemergence, 0-100 scale): 80
- Plant response rating, Corn [4, 15]: 95
- Plant response rating, Corn [4, 20]: 100
- Plant response rating, Corn [4, 16]: 100
- Plant response rating, Corn [4, 17]: 85
- Plant response rating, Corn [4, 18]: 90
- Plant response rating, Corn [4, 19]: 95
- Corn plant response rating ([4]; Preemergence, scale 0 to 100): 50
- Plant response rating, Nightshade, E. B. [5, 21]: 0
- Plant response rating, Nightshade, E. B. [5, 22]: 0
- Plant response rating, Nightshade, E. B. ([5]; 62 g ai/ha, scale 0 to 100): 0
- Nightshade, E. B. plant response rating ([5]; 8 g ai/ha, scale 0 to 100): 0
- Kochia plant response rating ([6]; postemergence, 0-100 scale): 0
- Plant response rating, Kochia [6, 15]: 0
- Plant response rating, Kochia [6, 20]: 0
- Plant response rating, Kochia [6, 16]: 0
- Plant response rating, Kochia [6, 18]: 0
- Plant response rating, Kochia [6, 19]: 0
- Kochia plant response rating ([6]; Preemergence, scale 0 to 100): 0
- Ragweed plant response rating ([7]; postemergence, 0-100 scale): 0
- Plant response rating, Ragweed [7, 15]: 0
- Plant response rating, Ragweed [7, 20]: 0
- Plant response rating, Ragweed [7, 16]: 0
- Plant response rating, Ragweed [7, 17]: 0
- Plant response rating, Ragweed [7, 18]: 0
- Plant response rating, Ragweed [7, 19]: 0
- Ragweed plant response rating ([7]; Preemergence, scale 0 to 100): 0
- Cocklebur plant response rating ([8]; postemergence, 0-100 scale): 0
- Plant response rating, Cocklebur [8, 15]: 0
- Plant response rating, Cocklebur [8, 20]: 0
- Plant response rating, Cocklebur [8, 16]: 0
- Plant response rating, Cocklebur [8, 17]: 0
- Plant response rating, Cocklebur [8, 18]: 0
- Cocklebur plant response rating ([8]; Preemergence, scale 0 to 100): 0
- Foxtail, Green plant response rating ([9]; postemergence, 0-100 scale): 85
- Plant response rating, Foxtail, Green [9, 15]: 85
- Plant response rating, Foxtail, Green [9, 20]: 100
- Plant response rating, Foxtail, Green [9, 16]: 100
- Plant response rating, Foxtail, Green [9, 17]: 100
- Plant response rating, Foxtail, Green [9, 18]: 100
- Plant response rating, Foxtail, Green [9, 19]: 100
- Foxtail, Green plant response rating ([9]; Preemergence, scale 0 to 100): 100
- Lambsquarters plant response rating ([10]; postemergence, 0-100 scale): 0
- Plant response rating, Lambsquarters [10, 15]: 0
- Plant response rating, Lambsquarters [10, 20]: 0
- Plant response rating, Lambsquarters [10, 16]: 0
- Plant response rating, Lambsquarters [10, 17]: 0
- Plant response rating, Lambsquarters [10, 18]: 0
- Plant response rating, Lambsquarters [10, 19]: 0
- Lambsquarters plant response rating ([10]; Preemergence, scale 0 to 100): 0
- Ryegrass, Italian plant response rating ([11]; postemergence, 0-100 scale): 75
- Plant response rating, Ryegrass, Italian [11, 15]: 80
- Plant response rating, Ryegrass, Italian [11, 20]: 100
- Plant response rating, Ryegrass, Italian [11, 16]: 100
- Plant response rating, Ryegrass, Italian [11, 17]: 95
- Plant response rating, Ryegrass, Italian [11, 18]: 95
- Plant response rating, Ryegrass, Italian [11, 19]: 98
- Ryegrass, Italian plant response rating ([11]; Preemergence, scale 0 to 100): 85
- Morningglory plant response rating ([12]; postemergence, 0-100 scale): 0
- Plant response rating, Morningglory [12, 15]: 0
- Plant response rating, Morningglory [12, 20]: 0
- Plant response rating, Morningglory [12, 16]: 0
- Plant response rating, Morningglory [12, 17]: 0
- Plant response rating, Morningglory [12, 18]: 0
- Plant response rating, Morningglory [12, 19]: 0
- Morningglory plant response rating ([12]; Preemergence, scale 0 to 100): 0
- Plant response rating, Galium [13, 21]: 0
- Plant response rating, Galium [13, 22]: 0
- Plant response rating, Galium ([13]; 62 g ai/ha, scale 0 to 100): 0
- Galium plant response rating ([13]; 8 g ai/ha, scale 0 to 100): 0
- Nutsedge, Yellow plant response rating ([14]; postemergence, 0-100 scale): 0
- Plant response rating, Nutsedge, Yellow [14, 15]: 0
- Plant response rating, Nutsedge, Yellow [14, 20]: 0
- Plant response rating, Nutsedge, Yellow [14, 16]: 0
- Plant response rating, Nutsedge, Yellow [14, 17]: 0
- Plant response rating, Nutsedge, Yellow [14, 18]: 0
- Plant response rating, Nutsedge, Yellow [14, 19]: 0
- Nutsedge, Yellow plant response rating ([14]; Preemergence, scale 0 to 100): 0
